# Like-named read-outs stand apart in the source and are kept apart here. Where a SMILES comes first, the peptide text is derived from it. The star is where a group is joined. Cbz = O=C(OCc1ccccc1)*
# Assays:
# MARK2 [1] = target: T1, MARK2 (Mus musculus, UniProt Q05512); test: cell-based MARK2 kinase activity assay based on eIF2α phosphorylation (immunoblot of MEFs); conditions: for phosphorylation level of eIF2α-51S: FIG. 21B; for activity in inhibiting the phosphorylation of eIF2α: comparison of seven drugs, FIG. 21E
# T1 construct: endogenous in cells; host or cells: mouse embryonic fibroblasts (MEFs)
# T1 sequence (Q05512 whole entry): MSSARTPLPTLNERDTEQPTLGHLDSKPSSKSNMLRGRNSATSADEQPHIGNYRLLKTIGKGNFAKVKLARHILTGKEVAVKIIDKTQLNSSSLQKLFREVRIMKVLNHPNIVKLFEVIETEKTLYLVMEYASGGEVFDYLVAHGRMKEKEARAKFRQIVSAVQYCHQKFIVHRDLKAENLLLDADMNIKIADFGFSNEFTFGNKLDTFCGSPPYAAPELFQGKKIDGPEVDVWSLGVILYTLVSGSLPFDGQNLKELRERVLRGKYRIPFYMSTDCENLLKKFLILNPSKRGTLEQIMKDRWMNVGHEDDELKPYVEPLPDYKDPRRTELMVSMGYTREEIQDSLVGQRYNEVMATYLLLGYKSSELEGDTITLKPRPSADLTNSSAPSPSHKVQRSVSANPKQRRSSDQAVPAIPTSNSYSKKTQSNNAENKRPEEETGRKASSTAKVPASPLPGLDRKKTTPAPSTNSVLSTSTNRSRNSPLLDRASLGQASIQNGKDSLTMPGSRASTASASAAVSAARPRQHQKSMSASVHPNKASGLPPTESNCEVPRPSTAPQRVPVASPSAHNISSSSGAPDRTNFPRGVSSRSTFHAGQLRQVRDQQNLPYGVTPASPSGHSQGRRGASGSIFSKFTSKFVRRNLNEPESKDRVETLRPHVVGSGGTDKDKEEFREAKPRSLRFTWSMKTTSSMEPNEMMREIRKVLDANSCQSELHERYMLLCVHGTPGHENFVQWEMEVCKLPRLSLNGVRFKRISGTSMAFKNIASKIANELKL
# Protocol: Cells were washed twice with 1× PBS and then lysed and harvested on ice in RIPA solution (50 mM Tris-HCl (pH 7.6); 150 mM NaCl; 1% NP-40; 1% SDS; 100 mM sodium fluoride; 17.5 mM β-glycerophosphate; 0.5% sodium deoxycholate; 10% glycerol). The RIPA buffer was supplemented with EDTA-free protease inhibitor cocktail (Roche, USA), phosphatase inhibitor cocktail 2 and phosphatase inhibitor cocktail 3 (Sigma-Aldrich, USA), 1 μM phenylmethanesulfonyl fluoride, and 2 μM sodium orthovanadate. Lysates were kept cold on ice, pulse-sonicated for 10 min, and then centrifuged at 12,000 g at 4° C. for 10 min. The protein content of each sample was determined by a bicinchoninic acid (BCA) assay (Thermo Fisher). Equal amounts of total protein extract were resolved by SDS-PAGE and transferred to nitrocellulose membranes (Millipore HATF08550, USA). The blots were blocked with 5% w/v BSA and 0.05% NaN3 in TBST and incubated with primary antibodies at 4° C. overnight, then finally incubated with appropriate secondary antibodies. The antibodies used include those against eIF2α (Cell Signaling 5324, USA), peIF2α (Cell Signaling 9721), PERK (Cell Signaling 3192), pPERK-^980T (Cell Signaling 3179), PKR (Santa Cruz SC-708 and SC-6282), HRI (Millipore 07-728), GCN2 (Cell Signaling 3302), pGCN2-899T (Abcam ab75836, USA), ATF4 (Cell Signaling 11815), HSP90 (Cell Signaling 8165), HSP70 (Cell Signaling 4872), Flag (Sigma F1804), Actin (Santa Cruz SC-47778), Tubulin (Proteintech 10068-1-AP, USA), PKCδ (Santa Cruz SC-937; Cell Signaling 2058), pPKCδ-311Y (Cell Signaling 2055), pPKCδ-^505T (Cell Signaling 9374), MARK2 (Abcam ab135816; Santa Cruz SC-365405), pMARK2-^595T (Abcam ab34751), PP1a (Cell Signaling 2582), pPP1α-^320T (Cell Signaling 2581), and puromycin (Millipore MABE343). Images were captured with an Odyssey imager and analyzed with Image Studio software (Licor 9120, USA).
# MARK2 [2] = conditions: previous report; cited from earlier work
# [3] = tested on: PKCδ-MARK2-eIF2α signaling pathway; format: cell-based, mouse
# Protocol: Since the phosphorylation of MARK2 at threonine 595 is required for its positive regulation of eIF2α phosphorylation (FIG. 1E), we asked whether this form of phosphorylated MARK2 is regulated upon cytosolic protein misfolding stress.
# The condition of MG132 treatment at 20 μM for 4 h was chosen for optimal induction of eIF2α phosphorylation in the analysis of these MEFs (FIG. 9D). To test whether activation of MARK2 also can be induced by other types of stress, we subjected the cells to oxidative stress, such as sodium arsenite treatment, or ER stress, such as tunicamycin treatment.
# Cells were washed twice with 1× PBS and then lysed and harvested on ice in RIPA solution (50 mM Tris-HCl (pH 7.6); 150 mM NaCl; 1% NP-40; 1% SDS; 100 mM sodium fluoride; 17.5 mM β-glycerophosphate; 0.5% sodium deoxycholate; 10% glycerol). The RIPA buffer was supplemented with EDTA-free protease inhibitor cocktail (Roche, USA), phosphatase inhibitor cocktail 2 and phosphatase inhibitor cocktail 3 (Sigma-Aldrich, USA), 1 μM phenylmethanesulfonyl fluoride, and 2 μM sodium orthovanadate. Lysates were kept cold on ice, pulse-sonicated for 10 min, and then centrifuged at 12,000 g at 4° C. for 10 min. The protein content of each sample was determined by a bicinchoninic acid (BCA) assay (Thermo Fisher). Equal amounts of total protein extract were resolved by SDS-PAGE and transferred to nitrocellulose membranes (Millipore HATF08550, USA). The blots were blocked with 5% w/v BSA and 0.05% NaN3 in TBST and incubated with primary antibodies at 4° C. overnight, then finally incubated with appropriate secondary antibodies.
# [4] = tested on: interaction between PKCδ and HSP90; test: coimmunoprecipitation of HSP90 by anti-PKCδ antibody in MEFs; format: cell-based, mouse; conditions: MEF cells treated with MG132
# From the text: We next investigated how the PKC&-MARK2-eIF2α signaling pathway senses protein misfolding stress. Since misfolded proteins, including SOD1, are prone to interact with molecular chaperone proteins, Wang et al., 2009; Tummala et al., 2005, we reasoned that the upstream regulator PKCδ could potentially interact with a molecular chaperone and that disruption of this interaction by misfolded proteins during proteotoxic stress might be a mechanism to account for the activation of the PKCδ kinase. We searched a protein-protein interaction database, Szklarczyk et al., 2015, and identified several candidate interactors of PKCδ, including HSP90, HSP90a, and HSP70. To evaluate potential interactions between PKCδ and these molecular chaperones, we performed coimmunoprecipitation experiments with endogenous proteins in MEF cells. After immunoprecipitation of PKCδ, only HSP90 was pulled down by PKCδ (FIG. 3A). When the level of PKCδ protein was elevated via stable expression in MEF cells, more HSP90 protein could be coimmunoprecipitated by PKCδ. Conversely, depletion of PKCδ from MEFs or use of an IgG control instead of the anti-PKCδ antibody abolished the coimmunoprecipitation of HSP90, confirming the specific interaction between PKCδ and HSP90 (FIG. 3A). […]
# [5] = WT and 4-KO MEFs, sodium arsenite 200 μM, 1 h
compound,measurement,setting,value
Cc1c[nH]c(-c2cnc(NCCNc3ccc(C#N)cn3)nc2-c2ccc(Cl)cc2Cl)n1 [CHIR99021],phosphorylation level of eIF2α-51S,"MARK2 [1]; MEFs, 20 μM, 1 hr, versus DMSO control",decreased the phosphorylation level of eIF2α-^51S
same,levels of phosphorylated eIF2α-51S,MARK2 [1]; at low concentrations,substantially lowering the levels of phosphorylated eIF2α-^51S
same,activity in inhibiting the phosphorylation of eIF2α,MARK2 [1],high activity
Cn1cc(C2=C(c3ccc(Cl)cc3Cl)C(=O)NC2=O)c2ccccc21 [SB216763],phosphorylation of eIF2α-51S,"MARK2 [1]; MEFs, 20 μM, 1 hr, versus DMSO control, FIG. 21A",substantially reduces the phosphorylation of eIF2α-^51S
same,increase in the levels of phosphorylated eIF2α-51S in response to MG132,MARK2 [1]; cell co-treatment with MG132,substantially diminished the increase
same,activity in inhibiting the phosphorylation of eIF2α,MARK2 [1],high activity for inhibiting eIF2α phosphorylation
same,activity in inhibiting the phosphorylation of eIF2α,MARK2 [1]; listed as SB-216763,high activity
same,MARK kinase function,MARK2 [2],inhibited MARK kinase function
O=[As]O [sodium arsenite],phosphorylation of MARK2-595T,[3]; [5],able to induce the phosphorylation
same,phosphorylation of eIF2α-51S,[3]; [5],able to induce the phosphorylation
COc1cc2ncnc(Nc3ccc(F)c(Cl)c3)c2cc1OCCCN1CCOCC1 [Gefitinib],phosphorylation level of eIF2α-51S,"MARK2 [1]; MEFs, 40 μM, 1 hr, versus DMSO control",needs a higher concentration than CHIR99021 to achieve the similar effect
same,activity in inhibiting the phosphorylation of eIF2α,MARK2 [1],low activity
tunicamycin,phosphorylation of MARK2-595T,"[3]; MEFs, tunicamycin 24 μg/ml, 2 h",no effect on the phosphorylation of MARK2-^595T
same,phosphorylation of eIF2α-51S,"[3]; WT and 4-KO MEFs, tunicamycin 24 μg/ml, 2 h",induced the phosphorylation of eIF2α-^51S in WT MEFs but not in the cells lacking the 4 previously known kinases
CC(C)C[C@@H](C=O)NC(=O)[C@H](CC(C)C)NC(=O)[C@H](CC(C)C)NC(=O)OCc1ccccc1 [MG132] (Cbz-Leu-Leu-Leu-aldehyde),level of the ATF4 protein,[3]; MEF cells treated with MG132,increased the level of the ATF4 protein
same,levels of phosphorylated MARK2-595T,[3]; MEF cells treated with MG132,substantial increase
same,levels of phosphorylated eIF2α-51S,[3]; MEF cells treated with MG132,corresponding increase
same,time at which phosphorylation of eIF2α-51S peaked,"[3]; MEFs, MG132 20 μM time course",around 4 h
same,interaction between PKCδ and HSP90,[4],completely abolished the interaction between PKCδ and HSP90

# Source: US20250186373A1, “TARGETING AN EUKARYOTIC INITIATION FACTOR 2 ALPHA KINASE TO REGULATE TRANSLATION UNDER STRESS” (The Johns Hopkins University, priority 2022, published 2025)
